Numbering of substitutions follows the chain as printed.

The target in assay [1] is 5-HT binding protein (5-HTBP), an acetylcholine binding protein (AChBP) from Aplysia californica engineered to bind 5-HT (Aplysia californica). In words: crystal structure; 5-HTBP at 6 mg/mL mixed with 5 mM varenicline; space group P4(1)2(1)2; 2.3 Å; one pentamer per asymmetric unit.
In assay [2] the target is 5-HTBP (Aplysia californica, UniProt Q8WSF8, Q74R/S111E/V159L/K160T). As to the kind of experiment: X-ray crystal structure, […] Å. The format is binding. As to conditions: co-crystallised, 5 mM varenicline (tartrate) with 6 mg/mL protein; orthosteric site, all five sites.
5-HTBP, sequence (Q8WSF8 entry or part of it Q74R/S111E/V159L/K160T): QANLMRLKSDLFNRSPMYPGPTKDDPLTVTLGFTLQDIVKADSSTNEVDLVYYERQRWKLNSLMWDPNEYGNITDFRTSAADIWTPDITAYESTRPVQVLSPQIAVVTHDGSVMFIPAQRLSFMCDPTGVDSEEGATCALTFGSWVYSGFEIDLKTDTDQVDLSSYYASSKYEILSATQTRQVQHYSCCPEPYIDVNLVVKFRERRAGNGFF
Assay [3] addresses T1, 5-HT3 receptor (5-HT3A) (Homo sapiens, UniProt P46098, N123Q).
T1 construct: gene HTR3A; full-length cDNA in pcDNA3.1, transiently expressed in HEK293 cells; homopentamer (also in Xenopus oocytes)
T1 sequence (P46098 24-478 N123Q): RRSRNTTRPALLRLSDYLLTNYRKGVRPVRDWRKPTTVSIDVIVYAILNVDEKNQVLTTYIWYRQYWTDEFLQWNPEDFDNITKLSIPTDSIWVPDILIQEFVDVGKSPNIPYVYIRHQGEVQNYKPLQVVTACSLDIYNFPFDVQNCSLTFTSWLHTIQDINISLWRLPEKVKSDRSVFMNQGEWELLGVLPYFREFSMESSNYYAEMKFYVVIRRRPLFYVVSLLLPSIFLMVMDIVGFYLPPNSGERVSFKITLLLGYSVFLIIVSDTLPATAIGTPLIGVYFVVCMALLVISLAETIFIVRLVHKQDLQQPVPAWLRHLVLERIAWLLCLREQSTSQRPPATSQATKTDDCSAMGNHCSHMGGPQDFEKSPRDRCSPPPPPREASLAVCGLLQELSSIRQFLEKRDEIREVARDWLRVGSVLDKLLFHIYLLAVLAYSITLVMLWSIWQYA
As to the kind of experiment: membrane potential dye fluorescence, FlexStation, transfected HEK293 cells. As to conditions: read-out: varenicline EC50. The format is cell-based.

The target of assay [4] is T2, 5-HT3 receptor (5-HT3A) (Homo sapiens, UniProt P46098, W178Y).
T2 construct: gene HTR3A; full-length cDNA in pcDNA3.1, transiently expressed in HEK293 cells; homopentamer (also in Xenopus oocytes)
T2 sequence (P46098 24-478 W178Y): T1 sequence (P46098 24-478 N123Q) with Q100N, W155Y
Described as above. As to conditions: read-out: varenicline EC50. It is filed as cell-based.

Assay [5] addresses T3, 5-HT3 receptor (5-HT3A) (Homo sapiens, UniProt P46098, Y89A).
T3 construct: gene HTR3A; full-length cDNA in pcDNA3.1, transiently expressed in HEK293 cells; homopentamer (also in Xenopus oocytes)
T3 sequence (P46098 24-478 Y89A): T1 sequence (P46098 24-478 N123Q) with Y66A, Q100N
The description is as above. It is filed as cell-based. As to conditions: read-out: varenicline EC50.

The target in assay [6] is T4, 5-HT3 receptor (5-HT3A) (Homo sapiens, UniProt P46098, Y148A).
T4 construct: gene HTR3A; full-length cDNA in pcDNA3.1, transiently expressed in HEK293 cells; homopentamer (also in Xenopus oocytes)
T4 sequence (P46098 24-478 Y148A): T1 sequence (P46098 24-478 N123Q) with Q100N, Y125A
The assay is described as above. To be noted: read-out: varenicline EC50. The format is cell-based.

For assay [7], the target named is T5, 5-HT3 receptor (5-HT3A) (Homo sapiens, UniProt P46098).
T5 construct: gene HTR3A; full-length cDNA in pcDNA3.1, transiently expressed in HEK293 cells; homopentamer (also in Xenopus oocytes)
T5 sequence (P46098 24-478): T1 sequence (P46098 24-478 N123Q) with Q100N
The description is as above. It is filed as cell-based. To be noted: read-out: varenicline EC50.

Assay [8] has as its target T6, 5-HT3 receptor (5-HT3A) (Homo sapiens, UniProt P46098, W85Y).
T6 construct: gene HTR3A; full-length cDNA in pcDNA3.1, transiently expressed in HEK293 cells; homopentamer (also in Xenopus oocytes)
T6 sequence (P46098 24-478 W85Y): T1 sequence (P46098 24-478 N123Q) with W62Y, Q100N
The assay is described as above. The format is cell-based. As to conditions: read-out: varenicline EC50.

Usually stoichiometry N stands for a count of units in the complex or per binding partner. In turn, “5-HT binding protein (5-HTBP), an acetylcholine binding protein (AChBP) from Aplysia californica engineered to bind 5-HT (natural protein)” came in with a stoichiometry N in assay [1] of 5.
As a reminder, the EC50 is the concentration needed to bring the measured effect to its halfway point. As to `c1cnc2cc3c(cc2n1)C1CNCC3C1` [varenicline], the “X-ray crystal structure, 2.3 Å” value in assay [2] is listed as “three-dimensional structure of 5-HTBP in complex with varenicline”. Also, the concentration for a half-maximal effect (EC50) in assay [3] is 26 µM; in assay [4], 38 µM; in assay [5], 0.13 µM; in assay [6], 9.4 µM; in assay [7], 0.42 µM; in assay [8] it was 2.9 µM.
